Data published in publication PMC6921279 (Frontiers in Endocrinology, 2019).

How the values were obtained:
[1] = tested on: CRF1R-mediated Akt phosphorylation; experiment: CRF-induced Akt phosphorylation at Ser473 in COS-7 cells expressing HA-CRF1R; type: cell-based, human; settings: wortmannin 100 nM, 30 min pretreatment; 100 nM CRF, 5 min
Protocol: Plasmid pRK5 encoding the carboxyl terminus of βARK that contains its βγ-binding domain (ct-βARK) was kindly provided by Dr. W. Koch (Center for Translational Medicine, Temple University, Philadelphia, PA), which is a scavenger for G protein βγ subunits ([25]). […] Plasmid pUSEamp encoding dominant-negative Akt-K179M (dn-Akt) was from Upstate Biotechnology (Lake Placid, NY).
(§1) COS-7 cells (from the American Type Culture Collection) were cultured at 37°C in a humidified atmosphere of 95% air, 5% CO2, in DMEM supplemented with 10% FBS, 100 μg/ml streptomycin, and 100 units/ml penicillin (COS-7 growth medium). Transient transfections were performed using LipofectAMINE (Life Technologies: Gaithersburg, MD) as described previously ([27]). Cells were seeded at 8 × 10^5 cells/10-cm dish in COS-7 medium and cultured for 3 days before transfection. COS-7 cells were transfected in 5 ml/dish OptiMEM containing 10 μg/ml LipofectAMINE with empty vector, pcDNA3 encoding the HA-CRF1R or the HA-CRF1R-Δ386 mutant. […] After replacing the transfection medium with fresh growth medium, transfected COS-7 cells were cultured for 1 day. Subsequently, cells were re-seeded in 6-well plates and cultured for an additional day prior to the experiment.
The protocols for measuring total and phosphorylated ERK1/2, c-Src, PYK2, Akt, and EGFR have been previously published ([28], [29]). After cells were cultured to 60–70% confluence, they were serum-deprived for 24 h. On the day of the experiment, cells were treated with the indicated ligands and inhibitors. […] After treatment, cells were placed on ice, the media was aspirated, and the cells were washed twice with ice-cold PBS and lysed in 100 μl of Laemmli sample buffer 1X. The lysates were briefly sonicated, heated at 95°C for 5 min, and centrifuged for 5 min at 14,000 rpm. Resulting supernatants were loaded in separate lanes of a 10% SDS-PAGE gels and electrophoresed. Next, Western transfer on to PDVF membranes was completed. The Western blots were then probed with specific antibodies targeting phosphorylated and non-phosphorylated forms of ERK1/2, c-Src, PYK2, Akt, and EGFR for primary immunodetection. […] The labeled bands were quantified using the Quantity One 4.6.3 software program (Bio-Rad).
Figure 7 CRF mediates Akt activation. […] Total cell lysates were separated by SDS-PAGE and analyzed by immunoblotting with anti-p-Akt Ser^473, as described in Materials and Methods. Akt phosphorylation was quantitated by densitometry, and mean values were plotted from three to five independent experiments. […]

[2] = tested on: EGF-stimulated Akt phosphorylation; experiment: Modulation of EGF-stimulated Akt phosphorylation in COS-7 cells; type: cell-based; settings: wortmannin 100 nM, 30 min pretreatment; 10 ng/ml EGF, 10 min
Protocol: as §1, with “Subsequently, cells were re-seeded in 6-well plates and cultured for an additional day prior to the experiment.” left out
The protocols for measuring total and phosphorylated ERK1/2, c-Src, PYK2, Akt, and EGFR have been previously published ([28], [29]). […] The labeled bands were quantified using the Quantity One 4.6.3 software program (Bio-Rad).
Figure 8 Involvement of the PI3K pathway in CRF-stimulated ERK1/2 phosphorylation. […] Total cell lysates were separated by SDS-PAGE and analyzed by immunoblotting with anti-p-Akt Ser^473 (A) or anti-p-ERK1/2 Thr^202/Tyr^204 (A–C), as described in Materials and Methods. Akt and ERK1/2 phosphorylation were quantitated by densitometry, and mean values were plotted from three to five independent experiments. […]

In the case of `COC[C@H]1OC(=O)c2coc3c2[C@@]1(C)C1=C(C3=O)[C@@H]2CCC(=O)[C@@]2(C)C[C@H]1OC(C)=O` [wortmannin], the “effect on CRF1R-mediated Akt signaling activation” value [1] is reported as “abolished CRF1R-mediated Akt signaling activation” and the “effect on EGF-stimulated Akt phosphorylation” value [2] is reported as “abolished the stimulatory action of EGF on Akt”.
